Laboratory results as given in patent US20060270648A1, “USE OF POLYAMINES WITH ANTIBIOTICS” (priority 2005, published 2006).
Values after ≈ are worked out from the molar mass of the structure shown. Read-outs that look alike come from different tables or passages of the source.

How the values were obtained:
[1] = system: MRSA Staphylococcus aureus 700699; test: MIC of antibiotics against MRSA Staphylococcus aureus 700699 with or without spermine; type: cell-based; conditions: for MIC: Staphylococcus aureus, MRSA, read-out: MICs in the absence or presence of spermine: No add; for MICs in the absence or presence of spermine: Spermine (1 mM): with 1 mM spermine
[2] = system: methicillin resistant Staphylococcus aureus (MRSA) Mu50; test: MIC of antibiotics against MRSA Mu50 with or without spermine; type: cell-based; conditions: for MICs in the presence or absence of spermine (1 mM): Spermine: with 1 mM spermine; for MIC: Staphylococcus aureus, MRSA, read-out: MICs in the presence or absence of spermine (1 mM): No add; for MICs in the presence or absence of spermine (1 mM): No add / MIC: no spermine
[3] = system: E. coli (K10, K12, C921-61); test: MIC of antibiotics against E. coli strains with or without polyamines (FIG. 3); type: cell-based; conditions: E. coli K10, K12, C921-61 and S. typhimurium LT2
[4] = system: Salmonella typhimurium LT2; conditions: for MICs in the indicated concentrations (mM) of polyamines: Spermine (1 mM): with 1 mM spermine; for MICs in the indicated concentrations (mM) of polyamines: Spermidine (20 mM): with 20 mM spermidine;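 on all read-outs here: Two-fold agar or broth dilution in Mueller-Hinton broth, MIC taken as lowest drug concentration without visible turbidity, tested alone or combined with polyamines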
[5] = system: P. aeruginosa PAO1; test: MIC of antibiotics against P. aeruginosa PAO1 with or without polyamines; type: cell-based
[6] = system: Salmonella typhimurium LT2; test: microbe, parasite or virus in culture; conditions: Salmonella enterica, read-out: MICs in the indicated concentrations (mM) of polyamines: No add;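 further: Two-fold agar or broth dilution in Mueller-Hinton broth, MIC taken as lowest drug concentration without visible turbidity, tested alone or combined with polyamines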

Row | Molecule | MIC ([1]; no spermine) [µg/mL] | MICs in the absence or presence of spermine: Spermine (1 mM) [1] [µg/mL] | MICs in the presence or absence of spermine (1 mM): Spermine [2] [µg/mL] | susceptibility with the combination of polyamines and antibiotics [3] | MICs in the indicated concentrations (mM) of polyamines: Spermine (1 mM) [4] [µg/mL] | MICs in the indicated concentrations (mM) of polyamines: Spermidine (20 mM) [4] [µg/mL] | MIC [2] [µg/mL] | MIC [6] [µg/mL] | further results
1 | CO[C@@]1(NC(=O)C(C(=O)O)c2ccc(O)cc2)C(=O)N2C(C(=O)O)=C(CSc3nnnn3C)CO[C@@H]21 (stereo partly drawn) [Moxalactam] | > 512 | >32 | – | – | – | – | – | – | –
2 | CC1(C)S[C@@H]2[C@H](NC(=O)Cc3ccccc3)C(=O)N2[C@H]1C(=O)O [Penicillin G] | – | 0.25 | 0.25 | improved susceptibility | 2 | 2 | – | – | MICs in the presence or absence of spermine (1 mM): No add [2]: 16 µg/mL; MICs in the absence or presence of spermine: No add ([1]; no spermine): 16 µg/mL; MICs in the indicated concentrations (mM) of polyamines: No add ([4]; no polyamine): 16 µg/mL
3 | NCCCCN [Putrescine] | – | – | – | – | – | – | – | – | MICs to carbenicillin in the indicated concentration of polyamines ([5]; 0 mM polyamine): 64 µg/mL; MICs to carbenicillin in the indicated concentration of polyamines ([5]; 0.5 mM polyamine): 64 µg/mL; MICs to carbenicillin in the indicated concentration of polyamines ([5]; 1 mM polyamine): 32 µg/mL; MICs to carbenicillin in the indicated concentration of polyamines ([5]; 5 mM polyamine): 32 µg/mL; MICs to carbenicillin in the indicated concentration of polyamines ([5]; 10 mM polyamine): 32 µg/mL; MICs to carbenicillin in the indicated concentration of polyamines ([5]; 20 mM polyamine): 16 µg/mL
4 | CC(=O)OCC1=C(C(=O)O)N2C(=O)[C@@H](NC(=O)Cc3cccs3)[C@H]2SC1 [Cephalothin] | 32 | 4 | 4 | – | – | – | 32 | – | –
5 | CO/N=C(\C(=O)N[C@@H]1C(=O)N2C(C(=O)O)=C(CSc3nc(=O)c(=O)[nH]n3C)CS[C@H]12)c1csc(N)n1 [Ceftriaxone] | > 512 | 16 | 16 | – | – | – | > 512 | – | –
6 | NCCCCCN [Cadaverine] | – | – | – | – | – | – | – | – | MICs to carbenicillin in the indicated concentration of polyamines ([5]; 0 mM polyamine): 64 µg/mL; MICs to carbenicillin in the indicated concentration of polyamines ([5]; 0.5 mM polyamine): 64 µg/mL; MICs to carbenicillin in the indicated concentration of polyamines ([5]; 1 mM polyamine): 32 µg/mL; MICs to carbenicillin in the indicated concentration of polyamines ([5]; 5 mM polyamine): 32 µg/mL; MICs to carbenicillin in the indicated concentration of polyamines ([5]; 10 mM polyamine): 32 µg/mL; MICs to carbenicillin in the indicated concentration of polyamines ([5]; 20 mM polyamine): 16 µg/mL
7 | CN(C)[C@@H]1C(O)=C(C(N)=O)C(=O)[C@@]2(O)C(O)=C3C(=O)c4c(O)cccc4[C@@](C)(O)[C@H]3C[C@@H]12 [Tetracycline] | 32 | 4 | 8 | – | 2 | 2 | 32 | 2 (≈ 4.5 µM) | –
8 | Cc1onc(-c2ccccc2)c1C(=O)N[C@@H]1C(=O)N2[C@@H]1SC(C)(C)[C@@H]2C(=O)O [Oxacillin] | ≥ 256 | 2 | 1 | improved susceptibility | – | 64 | ≥ 256 | 256 (≈ 638 µM) | decrease of MIC with exogenous spermine ([2]; spermine 1 mM and less): over 100 fold
9 | CC1(C)S[C@@H]2[C@H](NC(=O)[C@H](N)c3ccccc3)C(=O)N2[C@H]1C(=O)O [Ampicillin] | ≥ 32 | 2 | 2 | improved susceptibility | – | – | ≥ 32 | 16 (≈ 45.8 µM) | –
10 | CC(=O)OCC1=C(C(=O)O)N2C(=O)[C@@H](NC(=O)CCC[C@@H](N)C(=O)O)[C@H]2SC1 [Cephalosporin C] | – | >128 | – | – | – | – | – | – | MICs in the absence or presence of spermine: No add ([1]; no spermine): >512 µg/mL
11 | CCN1CCN(C(=O)N[C@@H](C(=O)N[C@@H]2C(=O)N3[C@@H]2SC(C)(C)[C@@H]3C(=O)O)c2ccccc2)C(=O)C1=O [Piperacillin] | 32 | 2 | 2 | improved susceptibility | 0.5 | 0.25 | 32 | 4 (≈ 7.73 µM) | –
12 | CO/N=C(\C(=O)N[C@@H]1C(=O)N2C(C(=O)O)=C(COC(C)=O)CS[C@H]12)c1csc(N)n1 [Cefotaxime] | 128 | 1 | 1 | – | – | – | 128 | – | –
13 | NC[C@H]1O[C@H](O[C@H]2[C@H](O)[C@@H](O[C@H]3O[C@H](CO)[C@@H](O)[C@H](N)[C@H]3O)[C@H](N)C[C@@H]2N)[C@H](O)[C@@H](O)[C@@H]1O [Kanamycin] | > 16 | >16 | – | – | 2 | 4 | – | 4 (≈ 8.26 µM) | –
14 | CC1(C)S[C@@H]2[C@H](NC(=O)[C@H](NC(=O)N3CCNC3=O)c3ccccc3)C(=O)N2[C@H]1C(=O)O [Azlocillin] | 16 | 0.5 | 0.5 | improved susceptibility | 4 | 1 | 16 | 16 (≈ 34.7 µM) | –
15 | CCn1cc(C(=O)O)c(=O)c2cc(F)c(N3CCNCC3)cc21 [Norfioxacin] | – | – | 64 | – | – | – | – | – | MICs in the presence or absence of spermine (1 mM): No add [2]: 128 µg/mL
16 | CN[C@@H]1[C@H](O)[C@H](NC)[C@H]2O[C@@]3(O)C(=O)C[C@@H](C)O[C@H]3O[C@@H]2[C@H]1O [Spectinomycin] | – | – | – | improved susceptibility | 32 | 32 | – | 32 (≈ 96.3 µM) | –
17 | O=C(N[C@H](CO)[C@H](O)c1ccc([N+](=O)[O-])cc1)C(Cl)Cl [Chloramphenicol] | 8 | 2 | 2 | improved susceptibility | 1 | 1 | 8 | 2 (≈ 6.19 µM) | –
18 | C[C@H]1[C@H](NC(=O)/C(=N\OC(C)(C)C(=O)O)c2csc(N)n2)C(=O)N1S(=O)(=O)O [Aztreonam] | > 1020 | >256 | – | – | – | – | – | – | –
19 | O=C(Cc1cccs1)N[C@@H]1C(=O)N2C(C(=O)[O-])=C(C[n+]3ccccc3)CS[C@H]12 [Cephaloridine] | 16 | 0.25 | 0.25 | – | – | – | 16 | – | –
20 | CN[C@H](CC(C)C)C(=O)N[C@H]1C(=O)N[C@@H](CC(N)=O)C(=O)N[C@H]2C(=O)N[C@H]3C(=O)N[C@H](C(=O)N[C@H](C(=O)O)c4cc(O)cc(O)c4-c4cc3ccc4O)[C@H](O)c3ccc(c(Cl)c3)Oc3cc2cc(c3O[C@@H]2O[C@H](CO)[C@@H](O)[C@H](O)[C@H]2O[C@H]2C[C@](C)(N)[C@H](O)[C@H](C)O2)Oc2ccc(cc2Cl)[C@H]1O [Vancomycin] | – | 4 | – | – | – | – | – | – | MIC [1]: 4 µg/mL
21 | Gentamicin | – | 256 | – | – | – | – | – | – | MICs in the absence or presence of spermine: No add ([1]; no spermine): 256 µg/mL
22 | CC(C)(O/N=C(\C(=O)N[C@@H]1C(=O)N2C(C(=O)[O-])=C(C[n+]3ccccc3)CS[C@H]12)c1csc(N)n1)C(=O)O [Ceftazidime] | 256 | 4 | 4 | – | – | – | 256 | – | –
23 | Cc1onc(-c2ccccc2Cl)c1C(=O)N[C@@H]1C(=O)N2[C@@H]1SC(C)(C)[C@@H]2C(=O)O [Cloxacillin] | > 256 | 2 | 1 | – | – | – | ≥ 256 | – | –
24 | CC1(C)S[C@@H]2[C@H](NC(=O)[C@H](C(=O)O)c3ccsc3)C(=O)N2[C@H]1C(=O)O [Ticarcillin] | 256 | 4 | 4 | improved susceptibility | 0.5 | 1 | 256 | 4 (≈ 10.4 µM) | –
25 | CCN1CCN(C(=O)N[C@@H](C(=O)N[C@@H]2C(=O)N3C(C(=O)O)=C(CSc4nnnn4C)CS[C@H]23)c2ccc(O)cc2)C(=O)C1=O [Cefoperazone] | > 512 | >4 | 16 | – | – | – | > 512 | – | –
26 | CC1(C)S[C@@H]2[C@H](NC(=O)[C@H](N)c3ccc(O)cc3)C(=O)N2[C@H]1C(=O)O [Amoxicillin] | 16 | 0.5 | 0.5 | – | – | – | 16 | – | –
